From publication PMC5999578 (Journal of the American Chemical Society, 2018)

Biological target: VioC (Streptomyces vinaceus, UniProt Q6WZB0)
Test: X-ray crystal structure, […] A
Type: binding
Conditions: vanadyl (ferryl mimic) in place of Fe, L-hArg

Sequence of VioC (Q6WZB0 whole entry): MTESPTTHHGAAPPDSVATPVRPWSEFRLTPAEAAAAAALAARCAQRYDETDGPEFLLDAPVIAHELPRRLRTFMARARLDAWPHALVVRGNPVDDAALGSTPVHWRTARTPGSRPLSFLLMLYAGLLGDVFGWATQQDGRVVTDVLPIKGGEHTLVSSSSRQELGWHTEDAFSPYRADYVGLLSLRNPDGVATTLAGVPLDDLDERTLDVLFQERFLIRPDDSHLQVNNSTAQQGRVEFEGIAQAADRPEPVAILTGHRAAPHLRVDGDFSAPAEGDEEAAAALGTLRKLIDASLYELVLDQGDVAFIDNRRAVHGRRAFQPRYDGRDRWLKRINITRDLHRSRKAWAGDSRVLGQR

Question: With `O=C(O)CCC(=O)O` [succinate] as the compound, how does the “X-ray crystal structure, 1.70 A” value read?
Answer: crystals of the VioC•VO•succinate•L-hArg complex
